From ChEMBL document CHEMBL3627672, “Structure-activity relationship study of syringolin A as a potential anticancer agent” (Bioorg Med Chem Lett, 2015)

Legend:
A-431 = test: Antiproliferative activity against human A431 cells after 72 hrs by oxyluciferin luminescence assay; conditions: A-431, 72 h
[1] = Antiproliferative activity against human TOV21G cells after 72 hrs by oxyluciferin luminescence assay
HCT-116 = test: Antiproliferative activity against human HCT116 cells after 72 hrs by oxyluciferin luminescence assay; conditions: HCT-116, 72 h
RKO = test: Antiproliferative activity against human RKO cells after 72 hrs by oxyluciferin luminescence assay
CCRF-CEM = test: Antiproliferative activity against human CCRF-CEM cells after 72 hrs by oxyluciferin luminescence assay
[2] = Antiproliferative activity against human RPMI8266 cells after 72 hrs by oxyluciferin luminescence assay; conditions: RPMI8266, 72 h

| Structure (SMILES) | IC50 (A-431) | IC50 (HCT-116) | IC50 (CCRF-CEM) | IC50 [1] | IC50 (RKO) | IC50 [2] |
| --- | --- | --- | --- | --- | --- | --- |
| CCCCCCCCCC(=O)N[C@@H](Cc1ccc(-c2ccccc2)cc1)C(=O)N[C@H]1/C=C/CCNC(=O)/C=C/[C@H](C(C)C)NC1=O | 0.0219 µM | 0.0271 µM | 0.0123 µM | 0.0168 µM | 0.0304 µM | 0.0197 µM |
| CCCCCCCCCC(=O)N[C@@H](Cc1cccnc1)C(=O)N[C@H]1/C=C/CCNC(=O)/C=C/[C@H](C(C)C)NC1=O | 0.0244 µM | 0.0294 µM | 0.0275 µM | 0.0051 µM | 0.0171 µM | 0.0155 µM |
| CCCCCCCCCC(=O)N[C@@H](Cc1ccc2ccccc2c1)C(=O)N[C@H]1/C=C/CCNC(=O)/C=C/[C@H](C(C)C)NC1=O | 0.0178 µM | 0.0185 µM | 0.005 µM | 0.0141 µM | 0.0152 µM | 0.0109 µM |
| CCCCCCCCCCCC(=O)N[C@@H](Cc1ccccc1)C(=O)N[C@H]1/C=C/CCNC(=O)/C=C/[C@H](C(C)C)NC1=O | 0.0448 µM | 0.0374 µM | 0.0148 µM | 0.0275 µM | 0.0336 µM | 0.0296 µM |
| CCCCCCCCCC(=O)N[C@@H](Cc1ccccc1Cl)C(=O)N[C@H]1/C=C/CCNC(=O)/C=C/[C@H](C(C)C)NC1=O | 0.0099 µM | 0.0087 µM | 0.0082 µM | 0.0071 µM | 0.0074 µM | 0.0088 µM |
| CCCCCCCCCC(=O)N[C@@H](Cc1ccccc1C)C(=O)N[C@H]1/C=C/CCNC(=O)/C=C/[C@H](C(C)C)NC1=O | 0.0089 µM | 0.012 µM | 0.0036 µM | 0.0062 µM | 0.0095 µM | 0.0088 µM |
| CCCCCCCCCC(=O)N[C@@H](Cc1ccccc1F)C(=O)N[C@H]1/C=C/CCNC(=O)/C=C/[C@H](C(C)C)NC1=O | 0.0149 µM | 0.0071 µM | 0.0033 µM | 0.0082 µM | 0.0068 µM | 0.0056 µM |
| CCCCCCCCCCC(=O)N[C@@H](Cc1ccccc1)C(=O)N[C@H]1/C=C/CCNC(=O)/C=C/[C@H](C(C)C)NC1=O | 0.0382 µM | 0.036 µM | 0.0074 µM | 0.0193 µM | 0.0192 µM | 0.0144 µM |
| CCCCCCCCCC(=O)N[C@@H](CCCc1ccccc1)C(=O)N[C@H]1/C=C/CCNC(=O)/C=C/[C@H](C(C)C)NC1=O | 0.0317 µM | 0.0406 µM | 0.0094 µM | 0.0085 µM | 0.0398 µM | 0.0235 µM |
| CCCCCCCCCC(=O)N[C@@H](CCc1ccccc1)C(=O)N[C@H]1/C=C/CCNC(=O)/C=C/[C@H](C(C)C)NC1=O | 0.0168 µM | 0.0284 µM | 0.0116 µM | 0.0096 µM | 0.027 µM | 0.0149 µM |
| CCCCCCCCCCCCC(=O)N[C@@H](Cc1ccccc1)C(=O)N[C@H]1/C=C/CCNC(=O)/C=C/[C@H](C(C)C)NC1=O | 0.0822 µM | 0.0739 µM | 0.0369 µM | 0.0483 µM | 0.0498 µM | 0.0883 µM |
| CCCCCCCCCC(=O)N[C@@H](Cc1cccc(F)c1)C(=O)N[C@H]1/C=C/CCNC(=O)/C=C/[C@H](C(C)C)NC1=O | 0.0277 µM | 0.015 µM | 0.0055 µM | 0.0211 µM | 0.0118 µM | 0.0088 µM |
| CCCCCCCCCC(=O)N[C@@H](Cc1ccc(Br)cc1)C(=O)N[C@H]1/C=C/CCNC(=O)/C=C/[C@H](C(C)C)NC1=O | 0.0256 µM | 0.0334 µM | 0.0184 µM | 0.0241 µM | 0.0337 µM | 0.0283 µM |
| CCCCCCCCCCCCCC(=O)N[C@@H](Cc1ccccc1)C(=O)N[C@H]1/C=C/CCNC(=O)/C=C/[C@H](C(C)C)NC1=O | 0.43 µM | 0.413 µM | 0.409 µM | 0.425 µM | 0.47 µM | 0.735 µM |
| CCCCCCCCCC(=O)N[C@@H](Cc1ccncc1)C(=O)N[C@H]1/C=C/CCNC(=O)/C=C/[C@H](C(C)C)NC1=O | 0.0503 µM | 0.0563 µM | 0.0357 µM | 0.0145 µM | 0.0473 µM | 0.0726 µM |
| CCCCCCCCCC(=O)N[C@@H](Cc1cccc(C)c1)C(=O)N[C@H]1/C=C/CCNC(=O)/C=C/[C@H](C(C)C)NC1=O | 0.0069 µM | 0.007 µM | 0.0035 µM | 0.0062 µM | 0.0073 µM | 0.0084 µM |
| CCCCCCCCCC(=O)N[C@@H](Cc1ccccn1)C(=O)N[C@H]1/C=C/CCNC(=O)/C=C/[C@H](C(C)C)NC1=O | 0.0235 µM | 0.0192 µM | 0.0086 µM | 0.0107 µM | 0.0182 µM | 0.015 µM |
| CCCCCCCCCC(=O)N[C@H](C(=O)N[C@H]1/C=C/CCNC(=O)/C=C/[C@H](C(C)C)NC1=O)c1ccccc1 | 0.0278 µM | 0.0451 µM | 0.011 µM | 0.0095 µM | 0.0208 µM | 0.0269 µM |
| CCCCCCC(=O)N[C@@H](Cc1ccccc1)C(=O)N[C@H]1/C=C/CCNC(=O)/C=C/[C@H](C(C)C)NC1=O | 0.0577 µM | 0.0245 µM | 0.0116 µM | 0.0607 µM | 0.0334 µM | 0.0189 µM |
| CCCCCCCCCC(=O)N[C@H](CC(=O)N[C@H]1/C=C/CCNC(=O)/C=C/[C@H](C(C)C)NC1=O)Cc1ccccc1 | 0.191 µM | 0.433 µM | 0.221 µM | 0.212 µM | 0.244 µM | 0.255 µM |
| CCCCCCCCCC(=O)N1CCC[C@]1(Cc1ccccc1)C(=O)N[C@H]1/C=C/CCNC(=O)/C=C/[C@H](C(C)C)NC1=O | > 1 µM | > 1 µM | > 1 µM | > 1 µM | > 1 µM | > 1 µM |
| CCCCC(=O)N[C@@H](Cc1ccccc1)C(=O)N[C@H]1/C=C/CCNC(=O)/C=C/[C@H](C(C)C)NC1=O | 0.413 µM | 0.402 µM | 0.0611 µM | 0.427 µM | 0.415 µM | 0.138 µM |

More lines, main results first:

| IC50 (A-431) | IC50 (HCT-116) | IC50 (CCRF-CEM) | Structure (SMILES) | IC50 [1] | IC50 (RKO) | IC50 [2] |
| --- | --- | --- | --- | --- | --- | --- |
| 0.0332 µM | 0.0231 µM | 0.0049 µM | CCCCCCCCCC(=O)N[C@@H](Cc1ccc(F)cc1)C(=O)N[C@H]1/C=C/CCNC(=O)/C=C/[C@H](C(C)C)NC1=O | 0.019 µM | 0.0148 µM | 0.0086 µM |
| > 1 µM | > 1 µM | 0.197 µM | CCCCCCCCCC(=O)N(C)[C@@H](Cc1ccccc1)C(=O)N[C@H]1/C=C/CCNC(=O)/C=C/[C@H](C(C)C)NC1=O | > 1 µM | > 1 µM | > 1 µM |
| 0.0233 µM | 0.0217 µM | 0.0045 µM | CCCCCCCCCC(=O)N[C@@H](Cc1ccc(Cl)cc1)C(=O)N[C@H]1/C=C/CCNC(=O)/C=C/[C@H](C(C)C)NC1=O | 0.0123 µM | 0.0196 µM | 0.012 µM |
| 0.0155 µM | 0.018 µM | 0.0046 µM | CCCCCCCCCC(=O)N[C@@H](Cc1cccc(Br)c1)C(=O)N[C@H]1/C=C/CCNC(=O)/C=C/[C@H](C(C)C)NC1=O | 0.0128 µM | 0.0163 µM | 0.0096 µM |
| 0.0134 µM | 0.0134 µM | 0.0039 µM | CCCCCCCCCC(=O)N[C@@H](Cc1ccccc1Br)C(=O)N[C@H]1/C=C/CCNC(=O)/C=C/[C@H](C(C)C)NC1=O | 0.0096 µM | 0.013 µM | 0.0094 µM |
| 0.0182 µM | 0.0071 µM | 0.0018 µM | CCCCCCCCC(=O)N[C@@H](Cc1ccccc1)C(=O)N[C@H]1/C=C/CCNC(=O)/C=C/[C@H](C(C)C)NC1=O | 0.0104 µM | 0.0086 µM | 0.0082 µM |
| 0.0184 µM | 0.0156 µM | 0.0052 µM | CCCCCCCCCC(=O)N[C@@H](Cc1cccc(Cl)c1)C(=O)N[C@H]1/C=C/CCNC(=O)/C=C/[C@H](C(C)C)NC1=O | 0.0138 µM | 0.0149 µM | 0.0094 µM |
| 0.015 µM | 0.0091 µM | 0.0042 µM | CCCCCCCCCC(=O)N[C@@H](Cc1ccsc1)C(=O)N[C@H]1/C=C/CCNC(=O)/C=C/[C@H](C(C)C)NC1=O | 0.0102 µM | 0.0113 µM | 0.0057 µM |
| 0.0187 µM | 0.0155 µM | 0.011 µM | CCCCCCCCCC(=O)N[C@@H](Cc1cccs1)C(=O)N[C@H]1/C=C/CCNC(=O)/C=C/[C@H](C(C)C)NC1=O | 0.0167 µM | 0.0208 µM | 0.0144 µM |
| 0.0297 µM | 0.0267 µM | 0.0249 µM | CCCCCCCCCC(=O)N[C@@H](Cc1ccco1)C(=O)N[C@H]1/C=C/CCNC(=O)/C=C/[C@H](C(C)C)NC1=O | 0.0223 µM | 0.0201 µM | 0.0241 µM |
| 0.0238 µM | 0.0193 µM | 0.0061 µM | CC(C)C[C@H](NC(=O)[C@H](CCc1ccccc1)NC(=O)CN1CCOCC1)C(=O)N[C@@H](Cc1ccccc1)C(=O)N[C@@H](CC(C)C)C(=O)[C@@]1(C)CO1 [CARFILZOMIB] | 0.0238 µM | 0.0271 µM | 0.0139 µM |
| 0.0455 µM | 0.0445 µM | 0.0168 µM | CCCCCCCCCC(=O)N[C@@H](Cc1c[nH]c2ccccc12)C(=O)N[C@H]1/C=C/CCNC(=O)/C=C/[C@H](C(C)C)NC1=O | 0.0135 µM | 0.0394 µM | 0.0275 µM |
| 0.128 µM | 0.0614 µM | 0.0286 µM | CCCCCC(=O)N[C@@H](Cc1ccccc1)C(=O)N[C@H]1/C=C/CCNC(=O)/C=C/[C@H](C(C)C)NC1=O | 0.131 µM | 0.0526 µM | 0.0426 µM |
| 0.0202 µM | 0.014 µM | 0.0066 µM | CCCCCCCC(=O)N[C@@H](Cc1ccccc1)C(=O)N[C@H]1/C=C/CCNC(=O)/C=C/[C@H](C(C)C)NC1=O | 0.019 µM | 0.0148 µM | 0.0099 µM |
